# “Also recorded” adds a separate entry of the source.
# Columns and labels:
# diabetic porcine model = test: Site-loss evaluation of insulin infusion sets in diabetic porcine model (blood glucose >350 mg/dl not corrected by insulin); type: in vivo, pig; conditions: for site-loss performance versus the control: agent formulated with insulin (Humalog)
# Protocol: The objectives of this study include duplicating the site-loss phenomena observed in previous studies using a diabetic porcine model. Additionally, various infusion set configurations are evaluated for reducing site-loss and extending infusion set wear. Further, site-loss is mitigated using a response-inhibiting agent and/or infusion pump to increase reliability of wear for 3 days and extend infusion set wear beyond 3 days.
# The objectives of this study include: duplicating the site-loss phenomena observed in previous studies using the diabetic porcine model; using the established diabetic porcine model to evaluate the effects of various infusion set designs on infusion site-loss; and testing if site-loss can be mitigated by direct pump infusing of immunosuppressant/anti-inflammatory drugs, and/or by modifying infusion set by drug coating.
# This study is designed so that each set (inserted under anesthesia) is to be worn for 1 week unless there was set failure/dislodge. Glucose is monitored by a blood glucose meter and Enlite™ sensor. The criteria for determining site loss is that blood glucose is greater than 350 mg/dl and fails to decrease following an insulin dose correction. During biopsy pumps are removed but the cannula is maintained in-situ. Site skin is examined for edema/erythema (swell/redness) (see FIG. 8).
# [1] = Assay of rapamycin/Humalog solution after use; type: physicochemical; conditions: 20 μg/mL solution assayed after use
# [2] = test system: normal and diabetic Yucatan pigs; test: PK/PD study: blood glucose response to Humalog; type: in vivo, Yucatan pig
# Description: Factors influencing insulin pK/pD properties include inflammation, infection, immune response, wound healing cascade, age of patients, type of insulin used, site of insertion, layer of scar tissue where the catheter tip resides, and several others. 6 Yucatan pigs were used in this study: 2 normal and 4 diabetic pigs, as shown in […]
# diabetic pig = test: Histopathology of infusion sites (inflammation at catheter tip and body); type: in vivo; conditions: listed as Humalog™
# Description: FIG. 2A is a series of histologic evaluations at the catheter tip showing the inflammatory response (score), and size of the area with tissue reaction. “*” indicates the catheter location and “F” indicates normal fat. […] FIG. 2B is a series of graphs illustrating the inflammation at the catheter tip for diabetic and non-diabetic pigs. Localized inflammation loosely correlated with site-loss.
# FIG. 2C is a series of graphs illustrating the predominate inflammation cells at the catheter tip and catheter body (qualitative). To isolate the main inflammation contributors, a catheter, a catheter infused with insulin (Humalog™), and a catheter infused with placebo were placed on a diabetic pig at the same time.
# FIG. 2D is a series of graphs illustrating the predominate inflammation cells at the catheter tip and catheter body of an insulin injection port (i-Port™). To isolate the main inflammation contributors, a catheter, a catheter infused with insulin, and a catheter infused with placebo were placed on a diabetic pig. Compared to continuous infusion, the giant cells are missing in the i-Port™ study. […] As observed by the pathologist, the pigs may have developed a hypersensitivity to the Humalog™ and such a reaction would contribute to the inflammation seen (the degree that hypersensitivity is influencing the inflammation is unclear but it could be one of the main drivers).
molecule,measurement,setting,value
Dextran Sulfate Sodium Salt,site-loss performance versus the control,diabetic porcine model,significantly better than the control
"C[C@@H]1C[C@H]2[C@@H]3CCC4=CC(=O)C=C[C@]4(C)[C@@]3(F)[C@@H](O)C[C@]2(C)[C@@]1(O)C(=O)COP(=O)(O)O [DXP, Dexamethasone Phosphate]",site-loss performance versus the control,diabetic porcine model,significantly worse than the control
CO[C@H]1C[C@@H]2CC[C@@H](C)[C@@](O)(O2)C(=O)C(=O)N2CCCC[C@H]2C(=O)O[C@H]([C@H](C)C[C@@H]2CC[C@@H](O)[C@H](OC)C2)CC(=O)[C@H](C)/C=C(\C)[C@@H](O)[C@@H](OC)C(=O)[C@H](C)C[C@H](C)/C=C/C=C/C=C/1C [Rapamycin],recovery of infusion site after,diabetic porcine model; dosed with Humalog,around 6 days
same,duration of wear before site-loss,"diabetic porcine model; formulation of insulin (Humalog) with agent, Sof-Set",5 days
same,stability of rapamycin in U100 Humalog solution,[1],*Rapamycin was later found to be degraded by assaying solution after use.
Insulin lispro,blood glucose level lowering,[2],effectively lower blood glucose level
same,order of evaluated inflammation scores,"diabetic pig; catheter, catheter infused with insulin, catheter infused with placebo on a diabetic pig",insulin≥placebo≥catheter; also recorded: insulin≥placebo≥cannula
same,localized inflammation / tissue fibrosis,diabetic pig; compared to catheter and placebo,associated with increased localized inflammation; also recorded: main contributor to localized tissue fibrosis
heparin sodium,no site-loss occurred in,"diabetic porcine model; U100 Humalog with heparin sodium 3.55 mg/mL (685 U/mL), continuous infusion, pigs IM3 and IM4, control IM1 site-loss in 2 days",> 6 days
same,site-loss performance versus the control,diabetic porcine model,significantly better than the control
"C[C@H]1C[C@H]2[C@@H]3CCC4=CC(=O)C=C[C@]4(C)[C@@]3(F)[C@@H](O)C[C@]2(C)[C@@]1(O)C(=O)COP(=O)([O-])[O-].[Na+].[Na+] [BSP, betamethasone sodium phosphate]",site-loss performance versus the control,diabetic porcine model,significantly worse than the control
